Data as given in ChEMBL document CHEMBL1133589, “N-3-substituted imidazoquinazolinones: potent and selective PDE5 inhibitors as potential agents for treatment of erectile dysfunction” (J Med Chem, 2000).

Key:
[1] = molecular target: cGMP-specific 3',5'-cyclic phosphodiesterase (Homo sapiens, UniProt O76074); assay: Inhibition of phosphodiesterase type 5 (PDE5) of human platelets
[2] = Relative inhibition of bovine heart PDE1 and PDE5 of human platelets
[3] = Relative inhibition of PDE2 of rat kidney and PDE5 of human platelets
[4] = Relative inhibition of PDE4 of rat kidney and PDE5 of human platelets
[5] = Relative ihibition of bovine retina PDE6 and PDE5 of human platelets

IC50 [1] [nM] | IC50 ratio [2] | IC50 ratio [3] | IC50 ratio [4] | IC50 ratio [5] | Compound
44 | 200 | 360 | 100 | 1 | CCCOc1ccccc1-c1nc(O)c2cc3[nH]cnc3cc2n1
0.48 | > 100000 | > 100000 | 4200 | 60 | CCCOc1ccc(C(N)=O)cc1-c1nc(O)c2cc3c(cc2n1)ncn3Cc1ccc(F)cc1
5.3 | 3400 | > 10000 | 600 | 20 | CCCOc1ccc(S(=O)(=O)N2CCN(C)CC2)cc1-c1nc(O)c2cc3c(cc2n1)ncn3Cc1ccccc1
 | 90 | 1300 | 1600 | 2 | CCCOc1ccc(S(=O)(=O)N2CCN(C)CC2)cc1-c1nc(O)c2cc3[nH]cnc3cc2n1
